Like-named read-outs stand apart in the source and are kept apart here.
Experiments:
Cx43 HCs = target: T1, Cx43 HCs (Homo sapiens, UniProt P17302); assay: Cx43-dependent growth complementation assay in E. coli LB2003; format: cell-based; settings: for Cx43/Cx26 Selectivity: IC50 Cx26/IC50 Cx43
T1 construct: expressed in transfected cells

human Cx26 HCs = target: T2, human Cx26 HCs (Homo sapiens, UniProt P29033); assay: Cx26-dependent growth complementation assay in E. coli LB2003; format: cell-based
T2 construct: expressed in transfected cells; host or cells: E. coli LB2003 (carrying pREP4), transformed with pQE-Cx26, IPTG-induced
Experimental: These derivatives were prepared by sequential benzylation and methylation followed by reduction of azido groups or hydrogenolysis of the Bn. […] Connexin HC inhibition was conducted using a bacteria-based assay of HC function^39. In this assay, Cx26 HCs are expressed in E. coli LB2003 cells, which lack three major K^+ uptake systems (Kdp, Kup and Trk), and as a result they cannot grow in low-[K^+] media^39-41. However, growth of this E. coli strain in low-[K^+] medium can be rescued by expression of K^+-permeable channels such as connexin HCs^39, 42-43. Under the conditions of the assay (LB2003 cells expressing HCs and grown in low-K^+ medium), inhibition of the HCs reduces or abolishes growth^39, 42-43. This is a simple assay where bacterial growth in multi-well plates can be followed by measuring the absorbance at 600 nm (OD600)^29.
LB2003 cells generously provided by Dr. E. P. Bakker (Osnabruk University, Osnabruk, Germany) were transformed with the plasmid pQE-Cx26 (human Cx26 into pQE60) and pREP4. […] LB2003 cells cannot grow in low-[K^+] media because of insufficient K^+ uptake for growth due to the knockout of three key K^+ transporters (Atrk, Akup, Akdp strain)^2-4. Details and validation of the growth complementation assay have been published recently^2. In brief, competent LB2003 containing the pREP4 plasmid were transformed with pQE-Cx26. These cells were grown overnight in Luria-Bertani medium (BD, Franklin Lakes, NJ, USA) supplemented with 100 mM KCl (to allow growth) and 0.4 mg/mL ampicillin, and then washed four times with NLM (see below), to remove residual K^+ from the Luria-Bertani medium. The washed cells were resuspended in complementation growth medium to an OD600 of 0.2. NLM contained 46 mM Na2HPO4, 23 mM NaH2PO4, 8 mM (NH4)2SO4, 0.4 mM MgSO4, 0.012 mM FeSO4, 1 mM sodium citrate, 44 mM glucose and 0.006 mM thiamine hydrochloride, pH 7.0. KLM had the same composition that NLM except for the equimolar replacement of Na^+ with K^+. For growth complementation we used NLM+4 mM KCl, and Cx26 expression was induced with 0.5 mM IPTG at the time of dilution to OD600=0.2. For the assay, the cells were seeded in 96-well plates and were incubated at 30° C., with shaking at 500 rpm. OD600 was measured after 18-h incubation in a plate reader. The initial OD600=0.2 was subtracted for growth calculations. Data are presented as means±SEM. Statistically significant differences were calculated by the Student t-test for unpaired data. Data were obtained from at least 3 independent experiments, with 3 repeats per experiment.

[1] = KI members, the 23rd table, read-out: Cx43 % inhibition
[2] = Table 3, read-out: Cx243% inhibition
[3] = Table 6, read-out: Cx43 (% inhibition)
[4] = K members, the 21st table, read-out: Cx43 % inhibition
[5] = the 12th table, Hill fit, mean ± SEM, some n = 1, read-out: Cx43 IC50
[6] = 4″,6″-disubstituted AKs, Table 5, read-out: Cx43 IC50
[7] = K46 members, the 20th table, read-out: IC50 (μM) against Cx43
[8] = 4″,6″-disubstituted AKs, Table 5, read-out: Cx26 IC50
[9] = K46 members, the 20th table, read-out: IC50 (μM) against Cx26
[10] = read-out: IC50, inhibition of Cx26 by kanamycin A and synthetic AGs, first Table 1

T1 sequence (P17302 whole entry): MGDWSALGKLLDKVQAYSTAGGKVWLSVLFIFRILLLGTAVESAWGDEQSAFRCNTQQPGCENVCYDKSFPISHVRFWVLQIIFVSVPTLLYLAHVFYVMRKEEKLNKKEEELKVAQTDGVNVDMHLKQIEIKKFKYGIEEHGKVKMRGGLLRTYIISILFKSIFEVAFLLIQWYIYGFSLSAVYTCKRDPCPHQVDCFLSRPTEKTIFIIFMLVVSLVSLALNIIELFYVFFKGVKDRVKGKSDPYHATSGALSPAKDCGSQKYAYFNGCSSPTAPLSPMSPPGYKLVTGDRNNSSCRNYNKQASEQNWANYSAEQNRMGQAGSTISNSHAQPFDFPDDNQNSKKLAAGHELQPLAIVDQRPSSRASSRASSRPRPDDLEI

SMILES | inhibition at 15 µM (Cx43 HCs; [2]) | inhibition at 15 µM (Cx43 HCs; [3]) | inhibition at 50 µM (Cx43 HCs; [2]) | inhibition at 50 µM (Cx43 HCs; [3]) | inhibition at 15 µM (human Cx26 HCs; Table 3) | inhibition at 15 µM (human Cx26 HCs; Table 6) | inhibition at 50 µM (human Cx26 HCs; Table 3) | inhibition at 50 µM (human Cx26 HCs; Table 6) | inhibition at 15 µM (Cx43 HCs; [4]) | inhibition at 50 µM (Cx43 HCs; [4]) | IC50 (human Cx26 HCs; [9]) | other results
NCC1OC(OC2C(N)CC(N)C(OC3OC(COCc4ccc(Cl)cc4)C(OCc4ccc(Cl)cc4)C(N)C3O)C2O)C(O)C(O)C1O (centres unmarked) [Compound 12, 4″,6″-Di-O-(4-chlorobenzyl) kanamycin] |  |  |  |  |  |  |  |  |  |  | 2.5 ± 0.6 µM | IC50 (Cx43 HCs; [6]): 17.1 ± 1.7 µM; Cx43/Cx26 Selectivity (Cx43 HCs; Table 5): 0.15; IC50 (Cx43 HCs; [7]): 20.3 µM; Cx43 Imax (maximal inhibition) (Cx43 HCs; the 12th table, Hill fit): 133%; IC50 (Cx43 HCs; [5]): 20.3 µM; IC50 (human Cx26 HCs; [8]): 2.5 ± 0.6 µM; IC50 (human Cx26 HCs; first Table 2, read-out: IC50, inhibition of Cx26 by synthetic AGs): 2.5 ± 0.6 µM
COC1C(OC2C(N)CC(N)C(OC3OC(CN)C(OC)C(OC)C3OC)C2OC)OC(COCc2ccccc2)C(OCc2ccccc2)C1N (centres unmarked) [Compound 8, 5, 2′, 3′, 4′, 2″-Penta-O-methyl-4″,6″-di-O-benzylkanamycin] |  |  |  |  |  |  |  |  |  |  | 8.4 ± 1.4 µM | IC50 (human Cx26 HCs; [10]): 8.4 ± 1.4 µM
CCCCCCCCOC[C@H]1OC(O[C@@H]2C(N)CC(N)C(O[C@H]3OC(CN)[C@@H](O)[C@H](O)C3O)[C@@H]2O)[C@H](O)[C@H](N)C1OCCCCCCCC (some centres unmarked) [Compound 5] |  |  |  |  |  |  |  |  |  |  | 13.6 ± 0.5 µM | IC50 (Cx43 HCs; [6]): 11.4 ± 4.3 µM; Cx43/Cx26 Selectivity (Cx43 HCs; Table 5): 1.19; IC50 (Cx43 HCs; [7]): 26.6 ± 7.8 µM; Cx43 Imax (Cx43 HCs; the 13th table): 119 ± 8%; IC50 (Cx43 HCs; the 13th table, read-out: Cx43 IC50): 11.4 ± 4.3 µM; IC50 (human Cx26 HCs; [8]): 13.6 ± 0.5 µM; IC50 (human Cx26 HCs; [10]): 13.6 ± 0.5 µM; Cx26 Imax (human Cx26 HCs; the 13th table): 94 ± 2%; IC50 (human Cx26 HCs; the 13th table, read-out: Cx26 IC50): 13.5 ± 0.5 µM

Further lines, with some results ahead:

inhibition at 15 µM (Cx43 HCs; [2]) | inhibition at 15 µM (Cx43 HCs; [3]) | inhibition at 50 µM (Cx43 HCs; [2]) | inhibition at 50 µM (Cx43 HCs; [3]) | inhibition at 15 µM (human Cx26 HCs; Table 3) | inhibition at 15 µM (human Cx26 HCs; Table 6) | inhibition at 50 µM (human Cx26 HCs; Table 3) | inhibition at 50 µM (human Cx26 HCs; Table 6) | inhibition at 15 µM (Cx43 HCs; [4]) | inhibition at 50 µM (Cx43 HCs; [4]) | SMILES | IC50 (human Cx26 HCs; [9]) | other results
17 ± 5.2% | 17 ± 5.2% | 37.2 ± 7.6% | 37.2 ± 7.6% | 14 ± 2.1% | 14 ± 2.1% | 25.2 ± 2.3% | 25.2 ± 2.3% |  |  | CCCCCCCC(=O)NCC1O[C@H](OC2C(N)CC(N)C(OC3O[C@H](CO)C(O)C(N)[C@H]3O)[C@H]2O)C(O)C(O)[C@@H]1O (some centres unmarked) [KI02] |  | inhibition at 15 µM (Cx43 HCs; [1]): 17 ± 5.2%; inhibition at 50 µM (Cx43 HCs; [1]): 37.2 ± 7.6%
 |  |  |  |  |  |  |  | 8.9% | 89.4% | NCC1O[C@H](O[C@@H]2C(N)C[C@@H](N)C(O[C@H]3OC(COc4ccc(-c5nc6ccccc6[nH]5)cc4)[C@@H](O)C(N)C3O)C2O)C(O)C(O)[C@@H]1O (some centres unmarked) [Compound K30] |  | IC50 (Cx43 HCs; [5]): 8.9 µM
36.5 ± 0.6% | 36.5 ± 0.6% | 49.3 ± 2.2% | 49.3 ± 2.2% | 35.9 ± 2.9% | 35.9 ± 2.9% | 62.6 ± 9.2% | 62.6 ± 9.2% | 36.5 ± 0.6% | 49.3 ± 2.2% | NCC1O[C@H](OC2C(N)CC(N)C(OC3O[C@H](COc4ccc([N+](=O)[O-])cc4)C(O)C(N)[C@H]3O)[C@H]2O)C(O)C(O)[C@@H]1O (some centres unmarked) [Compound K36] |  | 
38.1 ± 2.8% |  | 51 ± 8.8% |  | 26.8 ± 1.7% |  | 49.2 ± 5.5% |  | 38.1 ± 2.8% | 51 ± 8.8% | Cc1ccc(S(=O)(=O)OC[C@H]2OC(OC3C(N)CC(N)C(O[C@H]4OC(CN)[C@@H](O)C(O)C4O)[C@@H]3O)[C@H](O)C(N)C2O)cc1 (some centres unmarked) [Compound K19] |  | 
44.4 ± 5.3% | 44.4 ± 5.3% | 53.5 ± 1.9% | 53.5 ± 1.9% | 16.1 ± 3.2% | 16.1 ± 3.2% | 33.6 ± 3.8% | 33.6 ± 3.8% |  |  | CCCCCCCCCC(=O)NCC1O[C@H](OC2C(N)CC(N)C(OC3O[C@H](CO)C(O)C(N)[C@H]3O)[C@H]2O)C(O)C(O)[C@@H]1O (some centres unmarked) [KI03] |  | inhibition at 15 µM (Cx43 HCs; [1]): 44.4 ± 5.3%; inhibition at 50 µM (Cx43 HCs; [1]): 53.5 ± 1.9%

— patent publication US12286452B2, “Amphiphilic aminoglycoside connexin hemichannel inhibitors” (Texas Tech University System, priority 2018, dated 2025)
